Data as given in patent publication US20260337153A1, “IONIZABLE AMINE LIPIDS” (Intellia Therapeutics, Inc., priority 2023, published 2026).

System: rat TTR gene
Assay: In vivo editing of TTR in rat liver after LNP delivery (NGS, % editing)
Design: species or system rat (Sprague-Dawley)
Conditions: for Mean % editing in rat liver: NGS, dose 0.03 mpk, LNP with G000534 sgRNA and Cas9 mRNA 1:2 w/w, 3% C13 Ether (Compound 53: 3% PEG2K-DMG), N=5 (Compound 33: N=4)
Description: LNPs were prepared using various amine lipids in a 4-component lipid system consisting of an ionizable lipid (e.g., an amine lipid), DSPC, cholesterol and a PEG lipid (e.g., PEG2K-DMG, C13 Ether, C14 Ether). In assays for percent liver editing in rats, Cas9 mRNA and chemically modified sgRNA targeting a rat sequence were formulated in LNPs, at either a 1:1 w/w ratio or a 1:2 w/w sgRNA:Cas9 mRNA ratio.
The lipid components were dissolved in 100% ethanol with the lipid component molar ratios described below. The chemically modified sgRNA and Cas9 mRNA were combined and dissolved in 25 mM citrate, 100 mM NaCl, pH 5.0, resulting in a concentration of total RNA cargo of approximately 0.45 mg/mL. The LNPs were formulated with an N:P ratio of about 6, with the ratio of chemically modified sgRNA:Cas9 mRNA at either a 1:1 or 1:2 w/w ratio as described below.
The LNPs were formed by an impinging jet mixing of the lipid in ethanol with two volumes of RNA solution and one volume of water. First, the lipid in ethanol is mixed through a mixing cross with the two volumes of RNA solution. Then, a fourth stream of water is mixed with the outlet stream of the cross through an inline tee. (See, e.g., WO2016010840, FIG. 2). The LNPs were held for 1 hour at room temperature, and further diluted with water (approximately 1:1 v/v). Diluted LNPs were buffer exchanged into 50 mM Tris, 45 mM NaCl, 5% (w/v) sucrose, pH 7.5 (TSS) and concentrated as needed by methods known in the art. The resulting mixture was then filtered using a 0.2 μm sterile filter. The final LNP was stored at 4° C. or −80° C. until further use.
Sprague-Dawley female rats, ranging from 6-10 weeks of age were used in each study. Animals were weighed and dosed based on individual body weight measured the morning of dosing. LNPs were dosed via the lateral tail vein in a volume of 2 mL per kilogram of animal body weight. The animals were periodically observed for adverse effects for at least 24 hours post dose.
For studies measuring in vivo editing in liver, Sprague-Dawley female rats were dosed at 0.1 mpk or 0.03 mpk, unless otherwise noted. Animals were euthanized at 6 or 7 days by carbon dioxide asphyxiation and a heart clip or by ex sanguination via cardiac puncture under isoflourane anesthesia. Blood was collected into serum separator tubes. Liver tissue was collected. Genomic DNA was isolated from the liver tissue for editing measurement by Next-Generation Sequencing (NGS).
In brief, to quantitatively determine the efficiency of editing at the target location in the genome, genomic DNA was isolated and deep sequencing was utilized to identify the presence of insertions and deletions introduced by gene editing.
PCR primers were designed around the target site (e.g., TTR), and the genomic area of interest was amplified. Additional PCR was performed according to the manufacturer's protocols (Illumina) to add the necessary chemistry for sequencing. The amplicons were sequenced on an Illumina MiSeq instrument. The reads were aligned to the […] after eliminating those having low quality scores. The resulting files containing the reads were mapped to the reference genome (BAM files), where reads that overlapped the target region of interest were selected and the number of wild type reads versus the number of reads which contain an insertion, substitution, or deletion was calculated.
The editing percentage (e.g., the “indel efficiency” or “percent indels” or “% editing” or “% indel”) can be defined as the total number of sequence reads with insertions or deletions over the total number of sequence reads, including wild type.
In vivo editing efficiency for materials delivered with formulations including various amine lipid (or ionizable lipid) compounds in Experiments 1 through 14 as described in Tables 3 and 4 was assessed. Editing was measured using G000534 (SEQ ID NO: 5) which targets the rat TTR gene. […]

[1] = Experiment 4, 0.1 mpk, LNP with PEG2K-DMG
[2] = Experiment 9, 0.1 mpk, LNP with PEG2K-DMG
[3] = Experiment 12, 0.04 mpk, LNP with PEG2K-DMG
[4] = Experiment 3, 0.1 mpk, LNP with PEG2K-DMG
[5] = Experiment 5, 0.1 mpk, LNP with PEG2K-DMG

CCCCC/C=C\C/C=C\CCCCCCCC(=O)OCC(CCCCC(=O)OC(CCCC)CCCC)COC(=O)OCCCN(C)CC (centres unmarked) [Compound 13, 2-((((3-(ethyl(methyl)amino)propoxy)carbonyl)oxy)methyl)-7-(nonan-5-yloxy)-7-oxoheptyl (9Z,12Z)-octadeca-9,12-dienoate]
Mean % editing [1]: 20.9%

CCCCC/C=C\C/C=C\CCCCCCCC(=O)OCC(CCCCCCC(=O)OC(CCCCCC)CCCCCC)COC(=O)OCCCN(CC)CC (centres unmarked) [Compound 18, 2-((((3-(diethylamino)propoxy)carbonyl)oxy)methyl)-9-oxo-9-(tridecan-7-yloxy)nonyl (9Z,12Z)-octadeca-9,12-dienoate]
Mean % editing [2]: 34.4%

CCCCCCCCC(CCCCCCCC)OC(=O)CCCC(=O)OCC(COC(=O)CCCC(=O)OC(CCCCCCCC)CCCCCCCC)COC(=O)OCCCN1CCCCC1 [Compound 32, di(heptadecan-9-yl) O,O′-(2-((((3-(piperidin-1-yl)propoxy)carbonyl)oxy)methyl)propane-1,3-diyl) diglutarate]
Mean % editing [3]: 1.2%

CCCCCCC(CCCCCC)OC(=O)CCCC(=O)OCC(COC(=O)CCCC(=O)OC(CCCCCC)CCCCCC)COC(=O)NCCN(CC)CC [Compound 37, O,O′-(2-((((2-(diethylamino)ethyl)carbamoyl)oxy)methyl)propane-1,3-diyl) di(tridecan-7-yl) diglutarate]
Mean % editing [3]: 38.1%

CCCCCCCCCOC(=O)CCCCCCCN(CCO)CCCCCCCC(=O)OC(CCCCCCCC)CCCCCCCC [Compound 55]
Mean % editing (Experiment 11, 0.1 mpk, LNP with PEG2K-DMG): 13.2%

CCCCC/C=C\C/C=C\CCCCCCCC(=O)OCC(CCCCC(=O)OC(CCCCCC)CCCCCC)COC(=O)OCCCN(CC)CC (centres unmarked) [Compound 17, 2-((((3-(diethylamino)propoxy)carbonyl)oxy)methyl)-7-oxo-7-(tridecan-7-yloxy)heptyl (9Z,12Z)-octadeca-9,12-dienoate]
Mean % editing [2]: 35.8%

CCCCC/C=C\C/C=C\CCCCCCCC(=O)OCC(CCCCCCCCC(=O)OC(CCCCCCCC)CCCCCCCC)COC(=O)OCCCN(CC)CC (centres unmarked) [Compound 9, 2-((((3-(diethylamino)propoxy)carbonyl)oxy)methyl)-11-(heptadecan-9-yloxy)-11-oxoundecyl (9Z,12Z)-octadeca-9,12-dienoate]
Mean % editing [4]: 5.3% | Mean % editing [1]: 9.6% | Mean % editing [2]: 4.3%

CCCCCCCCC(CCCCCCCC)OC(=O)CCCC(=O)OCC(COC(=O)CCCC(=O)OC(CCCCCCCC)CCCCCCCC)COC(=O)OCCCN(C)C [Compound 31, O,O′-(2-((((3-(dimethylamino)propoxy)carbonyl)oxy)methyl)propane-1,3-diyl) di(heptadecan-9-yl) diglutarate]
Mean % editing [3]: 4.0%

CCCCCCCCC(CCCCCCCC)OC(=O)CCCC(=O)OCC(COC(=O)CCCC(=O)OC(CCCCCCCC)CCCCCCCC)COC(=O)OCCCN(CC)CC [Compound 2, O,O′-(2-((((3-(diethylamino)propoxy)carbonyl)oxy)methyl)propane-1,3-diyl) di(heptadecan-9-yl) diglutarate]
Mean % editing (Experiment 2, 0.1 mpk, LNP with PEG2K-DMG): 59.8% | Mean % editing [4]: 38.3% | Mean % editing (Experiment 14, 0.03 mpk, LNP with C13 Ether): 21.2%

CCCCCCCCC(CCCCCCCC)CC(=O)OCCC(=O)OCC(COC(=O)CCCC(=O)OC(CCCCCCCC)CCCCCCCC)COC(=O)NCCN(CC)CC (centres unmarked) [Compound 63, 3-(((2-(diethylamino)ethyl)carbamoyl)oxy)-2-(((3-((3-octylundecanoyl)oxy)propanoyl)oxy)methyl)propyl heptadecan-9-yl Glutarate]
Mean % editing (Table 8, 0.03 mpk, LNP with C13 Ether): 0.1%

CCCCC/C=C\C/C=C\CCCCCCCC(=O)OCC(CCCCCCCCC(=O)OC(CCCCCCCC)CCCCCCCC)COC(=O)NCCN(CC)CC (centres unmarked) [Compound 10, 2-((((2-(diethylamino)ethyl)carbamoyl)oxy)methyl)-11-(heptadecan-9-yloxy)-11-oxoundecyl (9Z,12Z)-octadeca-9,12-dienoate]
Mean % editing [1]: 35.3%

CCCCC/C=C\C/C=C\CCCCCCCC(=O)OCC(CCCCCCCCC(=O)OC(CCCCCCCC)CCCCCCCCC)COC(=O)CCC(CCCCCCCC)OC(=O)NCCN(C)CC (centres unmarked) [Compound 24, 3-methyl-15-(9-(octadecan-9-yloxy)-9-oxononyl)-9-octyl-7,12-dioxo-8,13-dioxa-3,6-diazahexadecan-16-yl (9Z,12Z)-octadeca-9,12-dienoate]
Mean % editing [5]: 3.6%

CCCCCCCCC(CCCCCCCC)OC(=O)CCCCCC(=O)OCC(COC(=O)CCCCCC(=O)OC(CCCCCCCC)CCCCCCCC)COC(=O)OCCCN1CCCC1 [Compound 64, 7,7′-di(heptadecan-9-yl) O′1,O1-(2-((((3-(pyrrolidin-1-yl)propoxy)carbonyl)oxy)methyl)propane-1,3-diyl) di(heptanedioate)]
Mean % editing in rat liver: 2.0%

CCCCC/C=C\C/C=C\CCCCCCCC(=O)OCC(CCCCCCCCC(=O)OC(CCCCCCCC)CCCCCCCCC)COC(=O)CCC(CCCC)OC(=O)NCCN(C)CC (centres unmarked) [Compound 26, 9-butyl-3-methyl-15-(9-(octadecan-9-yloxy)-9-oxononyl)-7,12-dioxo-8,13-dioxa-3,6-diazahexadecan-16-yl (9Z,12Z)-octadeca-9,12-dienoate]
Mean % editing [5]: 41.9%

CCCCCCCCC(CCCCCCCC)OC(=O)CCCCCCC(=O)OCC(COC(=O)CCCCCCC(=O)OC(CCCCCCCC)CCCCCCCC)COC(=O)OCCCN1CCCC1 [Compound 65, 8,8′-di(heptadecan-9-yl) O′1,O1-(2-((((3-(pyrrolidin-1-yl)propoxy)carbonyl)oxy)methyl)propane-1,3-diyl) di(octanedioate)]
Mean % editing in rat liver: 4.5%

CCCCC/C=C\C/C=C\CCCCCCCC(=O)OCC(CCCCCCCCC(=O)OC(CCCCCCCC)CCCCCCCCC)COC(=O)CCC(CCCC)OC(=O)NCCN1CCCC1 (centres unmarked) [Compound 27, 11-(octadecan-9-yloxy)-11-oxo-2-(((4-(((2-(pyrrolidin-1-yl)ethyl)carbamoyl)oxy)octanoyl)oxy)methyl)undecyl (9Z,12Z)-octadeca-9,12-dienoate]
Mean % editing [5]: 55.3%

CCCCCCCCOC(CCC(=O)OCC(COC(=O)CCC(OCCCCCCCC)OCCCCCCCC)COC(=O)OCCCN(CC)CC)OCCCCCCCC [Compound 1, 2-((((3-(diethylamino)propoxy)carbonyl)oxy)methyl)propane-1,3-diyl bis(4,4-bis(octyloxy)butanoate)]
Mean % editing [4]: 52.4%

CCCCCCCCC(CCCCCCCC)OC(=O)CCCCCCC(=O)OCC(COC(=O)CCCCCCC(=O)OC(CCCCCCCC)CCCCCCCC)COC(=O)NCCCN(CC)CC [Compound 61]
Mean % editing (Experiment 13, 0.03 mpk, LNP with PEG2K-DMG): 0.2%

CCCCCCCCC(CCCCCCCC)OC(=O)CCCCCCC(=O)OCC(CC)(COC(=O)CCCCCCC(=O)OC(CCCCCCCC)CCCCCCCC)COC(=O)NCCN(CC)CC [Compound 66, O′1,O1-(2-((((2-(diethylamino)ethyl)carbamoyl)oxy)methyl)-2-ethylpropane-1,3-diyl) 8,8′-di(heptadecan-9-yl) di(octanedioate)]
Mean % editing in rat liver: 9.5%
